Assay results from ChEMBL document CHEMBL1933036, “Chromenones as potent bradykinin B1 antagonists” (Bioorg Med Chem Lett, 2012).

How the values were obtained:
[1] = Clearance in rat at 2 mg/kg, iv; assay type: ADME, organism-based; parameters: dose 2 mg/kg, route intravenous; conditions: in vivo
[2] = Volume of distribution at steady state in rat at 2 mg/kg, iv; assay type: ADME, organism-based; parameters: dose 2 mg/kg, route intravenous; conditions: in vivo, read-out: Vdss
[3] = Half life in rat at 2 mg/kg, iv; assay type: ADME, organism-based; parameters: dose 2 mg/kg, route intravenous; conditions: in vivo
B1 bradykinin receptor [4] = target: T1, B1 bradykinin receptor (Oryctolagus cuniculus, UniProt P48748); test: Antagonist activity at rabbit B1 bradykinin receptor expressed in CHO cells; assay type: functional, cell-based
T1 sequence (P48748 whole entry): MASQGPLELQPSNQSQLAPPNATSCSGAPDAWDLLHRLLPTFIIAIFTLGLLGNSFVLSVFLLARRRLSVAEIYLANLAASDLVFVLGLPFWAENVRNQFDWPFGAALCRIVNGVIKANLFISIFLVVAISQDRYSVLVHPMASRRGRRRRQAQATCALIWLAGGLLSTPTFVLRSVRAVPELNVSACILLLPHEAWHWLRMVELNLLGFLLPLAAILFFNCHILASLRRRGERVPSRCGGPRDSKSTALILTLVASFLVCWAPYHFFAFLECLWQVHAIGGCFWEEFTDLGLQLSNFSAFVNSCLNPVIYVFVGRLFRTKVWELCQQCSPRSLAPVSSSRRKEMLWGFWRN

B1 bradykinin receptor [5] = target: T2, B1 bradykinin receptor (Homo sapiens, UniProt P46663); test: Binding affinity to human B1 bradykinin receptor
T2 sequence (P46663 whole entry): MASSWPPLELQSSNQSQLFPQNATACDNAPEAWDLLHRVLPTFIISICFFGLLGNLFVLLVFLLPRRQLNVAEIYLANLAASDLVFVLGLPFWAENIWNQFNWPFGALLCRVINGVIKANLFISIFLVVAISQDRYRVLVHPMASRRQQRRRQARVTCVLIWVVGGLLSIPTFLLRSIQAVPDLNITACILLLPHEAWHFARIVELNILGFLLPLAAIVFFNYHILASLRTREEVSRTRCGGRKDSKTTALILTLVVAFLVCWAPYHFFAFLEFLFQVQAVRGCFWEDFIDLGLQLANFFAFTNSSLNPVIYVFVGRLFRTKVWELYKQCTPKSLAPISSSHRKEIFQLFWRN

B1 bradykinin receptor [6] = target: T2, B1 bradykinin receptor; test: Antagonist activity at human B1 bradykinin receptor expressed in CHO cells by aqueorin-based calcium flux assay; assay type: functional, cell-based
[7] = Oral bioavailability in rat at 2 mg/kg; assay type: ADME, organism-based; conditions: in vivo
[8] = Oral bioavailability in rat at 5 mg/kg; assay type: ADME, organism-based; conditions: in vivo
Oryctolagus cuniculus = test: Analgesic activity in New Zealand white rabbit mechanical hyperalgesia model assessed as reduction in carrageenan-induced paw withdrawal at 10 mg/kg, sc administered 60 mins before carrageenan challenge measured after 3 hrs; assay type: functional; parameters: scale not given: the % may be the effect or the level left; conditions: route subcutaneous
[9] = Plasma concentration in New Zealand white rabbit carrageenan-induced mechanical hyperalgesia model at 10 mg/kg, sc administered 60 mins before carrageenan challenge measured after 3 hrs; assay type: ADME, organism-based, Oryctolagus cuniculus; parameters: dose 10 mg/kg, route subcutaneous

SMILES | IC50 (B1 bradykinin receptor [4]) | Ki (B1 bradykinin receptor [5]) | IC50 (B1 bradykinin receptor [6]) | also measured
O=C(N[C@H]1CCCc2cc(CN3CCCCC3)ccc21)c1ccc(-c2coc3cccc(F)c3c2=O)cc1 | 24 nM | 17 nM | 12 nM | clearance [1]: 25.5 mL/min/kg; Vd [2]: 8.83 L/kg; half-life [3]: 3.8 h; bioavailability [7]: 27.9%
Cc1cccc2occ(-c3ccc(C(=O)N[C@H]4CCCc5cc(CN6CCCCC6)ccc54)cc3)c(=O)c12 | 139 nM | 15 nM | 66 nM | 
O=C(N[C@@H]1CCCc2cc(CN3CCCCC3)ccc21)c1cccc(-c2coc3cc(Cl)ccc3c2=O)c1 | > 800 nM |  | 799 nM | 
O=C(N[C@@H]1CCCc2cc(CN3CCCCC3)ccc21)c1cccc(-c2coc3ccc(Cl)cc3c2=O)c1 | > 160 nM | 767 nM | 279 nM | 
Cc1nn(-c2cccc(C(=O)N[C@@H]3CCCc4cc(CN5CCCCC5)ccc43)c2)c(=O)c2ccccc12 | > 6460 nM |  | 3400 nM | 
O=C(N[C@H]1CCCc2cc(CN3CCCCC3)ccc21)c1ccc(-c2coc3cccc(Cl)c3c2=O)cc1 | 30 nM | 4 nM | 4 nM | clearance [1]: 17.7 mL/min/kg; Vd [2]: 6.67 L/kg; half-life [3]: 4.5 h; bioavailability [8]: 43.6%; Activity (Oryctolagus cuniculus): 65%; concentration at 3 h [9]: 379 nM
O=C(N[C@@H]1CCCc2cc(CN3CCCCC3)ccc21)c1cccc(-c2coc3ccc(F)cc3c2=O)c1 | 393 nM | 398 nM | 78 nM | 
O=C(N[C@@H]1CCCc2cc(CN3CCCCC3)ccc21)c1cccc(-c2coc3ccccc3c2=O)c1 | 476 nM |  | 112 nM | 
O=C(N[C@H]1CCCc2cc(CN3CCCCC3)ccc21)c1ccc(-c2coc3cc(Cl)ccc3c2=O)cc1 | > 800 nM | 42 nM | 264 nM | 
O=C(N[C@@H]1CCCc2cc(CN3CCCCC3)ccc21)c1cccc(-c2coc3c(Cl)cccc3c2=O)c1 | > 800 nM | 322 nM | 188 nM | 
O=C(N[C@H]1CCCc2cc(CN3CCCCC3)ccc21)c1ccc(-c2coc3c(Cl)cccc3c2=O)cc1 | > 4000 nM | 481 nM | 186 nM | 
O=C(N[C@H]1CCCc2cc(CN3CCCCC3)ccc21)c1ccc(-c2coc3ccc(Cl)cc3c2=O)cc1 | > 4000 nM | 1620 nM | > 4000 nM | 
O=C(N[C@H]1CCCc2cc(CN3CCCCC3)ccc21)c1ccc(-c2coc3ccccc3c2=O)cc1 | 122 nM |  |  | 
O=C(N[C@@H]1CCCc2cc(CN3CCCCC3)ccc21)c1cccc(-c2coc3cccc(Cl)c3c2=O)c1 | 248 nM | 29 nM | 17 nM | 
Cc1nn(-c2ccc(C(=O)N[C@H]3CCCc4cc(CN5CCCCC5)ccc43)cc2)c(=O)c2ccccc12 | 98 nM | 43 nM | 7 nM | 
